This is an account of results in patent US20080009025A1, “PROTEIN KINASE REGULATION” (priority 1999, published 2008).

The target in one assay is T1, GST-PDK1 (Homo sapiens, UniProt O15530).
T1 construct: Full length PDK1 (residues 1-556); made in house; host or cells: 293 cells
T1 sequence (O15530 1-556): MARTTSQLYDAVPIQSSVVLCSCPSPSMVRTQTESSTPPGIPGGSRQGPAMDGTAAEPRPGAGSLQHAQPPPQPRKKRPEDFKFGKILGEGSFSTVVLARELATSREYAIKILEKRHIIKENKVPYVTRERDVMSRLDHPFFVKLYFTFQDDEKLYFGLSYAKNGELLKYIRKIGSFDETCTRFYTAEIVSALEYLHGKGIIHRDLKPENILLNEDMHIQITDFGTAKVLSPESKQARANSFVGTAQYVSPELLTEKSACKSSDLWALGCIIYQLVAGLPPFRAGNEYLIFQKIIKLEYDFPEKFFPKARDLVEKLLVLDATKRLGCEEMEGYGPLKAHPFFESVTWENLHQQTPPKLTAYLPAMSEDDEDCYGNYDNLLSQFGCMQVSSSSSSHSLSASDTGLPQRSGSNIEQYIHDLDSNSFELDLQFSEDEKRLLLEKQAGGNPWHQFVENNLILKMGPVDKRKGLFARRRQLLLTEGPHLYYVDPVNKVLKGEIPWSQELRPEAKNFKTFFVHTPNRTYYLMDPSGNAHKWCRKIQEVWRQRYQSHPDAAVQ
The assay is described as follows: Thermal denaturation of PDK1 (TM50). It counts as biochemical. The conditions noted are these: wild type GST-PDK1; heated 2 min. An excerpt: A further aspect of the invention provides the use of an interacting polypeptide as defined above, for example comprising the amino acid sequence Phe/Tyr-Xaa-Xaa-Phe/Tyr or an interacting compound of the invention in a method of stabilising a protein kinase having a hydrophobic pocket in the position equivalent to the hydrophobic pocket of Protein Kinase A (PKA) that is defined by residues including Lys76, Leu116, Val80 and/or Lys111 of full-length mouse PKA, wherein the protein kinase is exposed to the compound or polypeptide. Stabilisation may be measured by measuring the TM50 value. The TM50 value is the temperature at which heating for two minutes produces a 50% reduction in protein kinase activity (measured using any appropriate substrate) compared with the protein kinase activity before such heating, as described in Example 2. An increase in the TM50 value, for example by at least about 1, 2, 3, 4, 5, 6, 7, 8, 9, 10 or 15° C. indicates stabilisation.
FIG. 12. PDK1 is activated and stabilised through its interaction with PIFtide. (A) GST-PDK1 activity was measured in the presence of increasing concentrations of wild type (wt) PIFtide (closed circles) or a mutant D978A PIFtide (open circles) using the synthetic peptide substrate termed T308tide, as described in Material and Methods. The data was fitted to a hyperbola using the Kaleidagraph™ software. […]

The test system of a further assay is PKBα. The assay is described as follows: IGF1-induced activation and Ser473 phosphorylation of HA-PKBα in co-transfected 293 cells. It counts as cell-based, human. The protocol: FIG. 4. […] 293 cells were co-transfected with constructs expressing the wild type full length HA-PKBα with either GST-PIF or GST. 24 h post transfection the cells were serum starved for 16 h and then stimulated for 15 min with 100 nM IGF1. The cells were lysed and HA-PKBα was immunoprecipitated and assayed as described in Methods. Protein from each lysate (10 μg) was electrophoresed on a 10% SDS/polyarylamide gel and immunoblotted using HA-antibody or the S473-P antibody. The HA-PKBα activities shown are the averages ±SEM for a single experiment carried out in triplicate, similar results were obtained in 3 separate experiments.
293 cells cultured on 10 cm diameter dishes in Dulbecco's Modified Eagle's Medium containing 10% (by vol) foetal bovine serum, were transfected with 2 μg of DNA construct encoding either wild type or mutant HA-p70 S6K or HA-PKBα, and 10 μg of DNA construct encoding either GST-PIF, GST-F977A-PIF, GST, Myc-PDK1, kinase-dead Myc-PDK1, or the empty pCMV5 vector using a modified calcium phosphate method. 24 h post transfection the cells were deprived of serum for 16 h, and exposed to IGF1 (100 nM) for the time indicated. […] The protein concentrations of the lysates were determined by the Bradford method. […]

Where a SMILES comes first, the peptide text is derived from it.

As for `CC[C@H](C)[C@H](NC(=O)[C@H](Cc1ccc(O)cc1)NC(=O)[C@H](CC(=O)O)NC(=O)[C@H](Cc1ccccc1)NC(=O)[C@H](CC(=O)O)NC(=O)[C@H](CCCNC(=N)N)NC(=O)[C@H](Cc1ccccc1)NC(=O)[C@H](CCSC)NC(=O)[C@H](CCC(=O)O)NC(=O)[C@H](CCC(N)=O)NC(=O)[C@H](CCC(=O)O)NC(=O)[C@H](CCC(=O)O)NC(=O)[C@H](CCC(=O)O)NC(=O)[C@H](CO)NC(=O)[C@H](CC(C)C)NC(=O)[C@@H](NC(=O)[C@H](CCCNC(=N)N)NC(=O)[C@@H]1CCCN1C(=O)[C@H](CCC(=O)O)NC(=O)[C@@H](N)CCCNC(=N)N)[C@@H](C)CC)C(=O)N[C@@H](C)C(=O)N[C@@H](CC(=O)O)C(=O)N[C@@H](Cc1c[nH]c2ccccc12)C(=O)N[C@@H](CS)C(=O)O` [PIFtide] (H-REPRILSEEEQEMFRDFDYIADWC-OH; N-terminus and C-terminus assumed), at GST-PDK1, the “increase of TM50” value was 8-10 °C. As to “GST-PIF: glutathione S-transferase fused to the last 77 residues of PRK2 (PIF)”, the “IGF1-induced phosphorylation of HA-PKBα at Ser473” value with PKBα was “did not inhibit or potentiate”.
